In paper PMC8761492 (Life Science Alliance, 2022):
Starred links: 1 amine or outer side, 2 acyl side, 3 side chain; linkers in the order of their positions; H or OH if unused. Positions of bridges follow the written chain, without caps; N, C: chain ends. Non-standard residues stand in square brackets, D forms with d. Residues, ends and D or L forms follow the SMILES beside them. *: point of attachment. X1 = CC[C@H](C)[C@@H](N[*:1])[C@@H](O)CC(=O)O[C@H](C(=O)[C@H](C)C(=O)[*:2])C(C)C; NMeY = CN[C@@H](Cc1ccc(O)cc1)C(=O)O; dNMeL = CN[C@H](CC(C)C)C(=O)O; Pyruvoyl = CC(=O)C(=O)*

Test system: COVID-19
Test: APLICOV-PC: mortality, ventilation, ICU admission and oxygen therapy
Assay type: in vivo, human
Method: Secondary outcomes included change from baseline of viral load, as evaluated by quantitative PCR via central laboratory on nasopharyngeal exudate or sampled from the lower respiratory tract within 48 h before first administration of plitidepsin and on days 4, 7, 15, and 31, and the percentage of patients requiring oxygen therapy, noninvasive mechanical ventilation, invasive mechanical ventilation and/or intensive care unit admission, and the percentage of patients with a fatal outcome on days 7, 15, and 31.
Analysis for preliminary evidence of efficacy was performed on all patients who had efficacy assessments at baseline and at least one subsequent assessment during treatment.
In regards with subgroup analyses, safety and efficacy outcomes also were assessed by age-group (<65 versus ≥65 yr) and efficacy outcomes were assessed by disease severity at baseline. Safety outcomes were also assessed before and after the implementation of the protocol amendment.

[1] = Day 1 to Day 7, 1.5 mg (N = 14)
[2] = Day 1 to Day 7, 2.0 mg (N = 15)
[3] = Day 1 to Day 7, 2.5 mg (N = 15)
[4] = Day 1 to Day 31, 1.5 mg (N = 14)
[5] = Day 1 to Day 31, 2.0 mg (N = 15)
[6] = Day 1 to Day 31, 2.5 mg (N = 15)
[7] = Day 1 to Day 31, Total (N = 44)
[8] = Day 8 to Day 15, 1.5 mg (N = 14)
[9] = Day 8 to Day 15, 2.0 mg (N = 15)
[10] = Day 8 to Day 15, 2.5 mg (N = 15)
[11] = Day 8 to Day 15, Total (N = 44)
[12] = Day 16 to Day 31, 1.5 mg (N = 14)
[13] = Day 16 to Day 31, 2.0 mg (N = 15)
[14] = Day 16 to Day 31, 2.5 mg (N = 15)
[15] = Day 16 to Day 31, Total (N = 44)
[16] = day 1 to Day 7, Moderate (N=23)
[17] = day 1 to Day 15, Moderate (N=23)

CC[C@H](C)[C@H]1NC(=O)[C@@H](NC(=O)[C@@H](CC(C)C)N(C)C(=O)[C@@H]2CCCN2C(=O)C(C)=O)[C@@H](C)OC(=O)[C@H](Cc2ccc(OC)cc2)N(C)C(=O)[C@@H]2CCCN2C(=O)[C@H](CC(C)C)NC(=O)[C@@H](C)C(=O)[C@H](C(C)C)OC(=O)C[C@@H]1O [Plitidepsin] (Pyruvoyl-P[dNMeL]T[X1]LP[NMeY](Me); ester 3-C)
Mortality from Day 1 to Day 31 (1.5 mg (N = 14)): 1 (7.1)
Mortality from Day 1 to Day 31 (2.5 mg (N = 15)): 1 (6.7)
Patients requiring invasive mechanical ventilation and/or intensive care unit admission [1]: 2 (14.3)
Patients requiring noninvasive mechanical ventilation [1]: 4 (28.6)
Patients requiring invasive mechanical ventilation and/or intensive care unit admission [2]: 1 (6.7)
Patients requiring noninvasive mechanical ventilation [2]: 0
Patients requiring invasive mechanical ventilation and/or intensive care unit admission [3]: 2 (13.3)
Patients requiring noninvasive mechanical ventilation [3]: 1 (6.7)
Patients requiring invasive mechanical ventilation and/or intensive care unit admission (Day 1 to Day 7, Total (N = 44)): 5 (11.4)
Patients requiring noninvasive mechanical ventilation (Day 1 to Day 7, Total (N = 44)): 5 (11.4)
Patients requiring invasive mechanical ventilation and/or intensive care unit admission [4]: 2 (14.3)
Patients requiring noninvasive mechanical ventilation [4]: 5 (35.7)
Patients requiring oxygen therapy at [4]: 12 (85.7)
Patients requiring invasive mechanical ventilation and/or intensive care unit admission [5]: 1 (6.7)
Patients requiring noninvasive mechanical ventilation [5]: 1 (6.7)
Patients requiring oxygen therapy at [5]: 12 (80.0)
Patients requiring invasive mechanical ventilation and/or intensive care unit admission [6]: 3 (20.0)
Patients requiring noninvasive mechanical ventilation [6]: 2 (13.3)
Patients requiring oxygen therapy at [6]: 11 (73.3)
Patients requiring invasive mechanical ventilation and/or intensive care unit admission [7]: 6 (13.6)
Patients requiring noninvasive mechanical ventilation [7]: 8 (18.2)
Patients requiring oxygen therapy at [7]: 35 (79.5)
Patients requiring oxygen therapy at (Day 7, 1.5 mg (N=14)): 12 (85.7)
Patients requiring oxygen therapy at (Day 7, 2.0 mg (N = 15)): 12 (80.0)
Patients requiring oxygen therapy at (Day 7, 2.5 mg (N=15)): 11 (73.3)
Patients requiring oxygen therapy at (Day 7, Total (N=44)): 35 (79.5)
Patients requiring invasive mechanical ventilation and/or intensive care unit admission [8]: 1 (7.1)
Patients requiring noninvasive mechanical ventilation [8]: 3 (21.4)
Patients requiring invasive mechanical ventilation and/or intensive care unit admission [9]: 1 (6.7)
Patients requiring noninvasive mechanical ventilation [9]: 0
Patients requiring invasive mechanical ventilation and/or intensive care unit admission [10]: 1 (6.7)
Patients requiring noninvasive mechanical ventilation [10]: 2 (13.3)
Patients requiring invasive mechanical ventilation and/or intensive care unit admission [11]: 3 (6.8)
Patients requiring noninvasive mechanical ventilation [11]: 5 (11.4)
Patients requiring oxygen therapy at (Day 15, 1.5 mg (N=14)): 4 (28.6)
Patients requiring oxygen therapy at (Day 15, 2.0 mg (N = 15)): 1 (6.7)
Patients requiring oxygen therapy at (Day 15, 2.5 mg (N=15)): 4 (26.7)
Patients requiring oxygen therapy at (Day 15, Total (N=44)): 9 (20.5)
Patients requiring invasive mechanical ventilation and/or intensive care unit admission [12]: 1 (7.1)
Patients requiring noninvasive mechanical ventilation [12]: 1 (7.1)
Patients requiring invasive mechanical ventilation and/or intensive care unit admission [13]: 1 (6.7)
Patients requiring noninvasive mechanical ventilation [13]: 1 (6.7)
Patients requiring invasive mechanical ventilation and/or intensive care unit admission [14]: 1 (6.7)
Patients requiring noninvasive mechanical ventilation [14]: 1 (6.7)
Patients requiring invasive mechanical ventilation and/or intensive care unit admission [15]: 3 (6.8)
Patients requiring noninvasive mechanical ventilation [15]: 3 (6.8)
Patients requiring oxygen therapy at (Day 31, 1.5 mg (N=14)): 0
Patients requiring oxygen therapy at (Day 31, 2.0 mg (N = 15)): 2 (13.3)
Patients requiring oxygen therapy at (Day 31, 2.5 mg (N=15)): 1 (6.7)
Patients requiring oxygen therapy at (Day 31, Total (N=44)): 3 (6.8)
Mortality from Day 1 to Day 31 (Total (N = 44)): 2 (4.5)
Patients requiring oxygen therapy (low flow) at (day 1 to Day 7, Mild (N=6)): 33.3%
Patients requiring oxygen therapy at (day 1 to Day 7, Mild (N=6)): 33.3%
Patients requiring non-invasive mechanical ventilation at [16]: 4.3%
Patients requiring oxygen therapy (high flow) at [16]: 4.3%
Patients requiring oxygen therapy (low flow) at [16]: 78.3%
Patients requiring oxygen therapy at [16]: 78.3%
Patients requiring ICU admission at (day 1 to Day 7, Severe (N=15)): 33.3%
Patients requiring invasive mechanical ventilation and/or ICU admission at (day 1 to Day 7, Severe (N=15)): 33.3%
Patients requiring non-invasive mechanical ventilation at (day 1 to Day 7, Severe (N=15)): 26.7%
Patients requiring oxygen therapy (high flow) at (day 1 to Day 7, Severe (N=15)): 26.7%
Patients requiring oxygen therapy (low flow) at (day 1 to Day 7, Severe (N=15)): 100%
Patients requiring oxygen therapy at (day 1 to Day 7, Severe (N=15)): 100%
Patients requiring oxygen therapy (low flow) at (day 1 to Day 15, Mild (N=6)): 33.3%
Patients requiring oxygen therapy at (day 1 to Day 15, Mild (N=6)): 33.3%
Patients requiring non-invasive mechanical ventilation at [17]: 4.3%
Patients requiring oxygen therapy (high flow) at [17]: 4.3%
Patients requiring oxygen therapy (low flow) at [17]: 78.3%
Patients requiring oxygen therapy at [17]: 78.3%
Patients requiring ICU admission at (day 1 to Day 15, Severe (N=15)): 40%
Patients requiring invasive mechanical ventilation and/or ICU admission at (day 1 to Day 15, Severe (N=15)): 40%
Patients requiring invasive mechanical ventilation at (day 1 to Day 15, Severe (N=15)): 13.3%
Patients requiring non-invasive mechanical ventilation at (day 1 to Day 15, Severe (N=15)): 40%
